In US9624213B2 (Plexxikon Inc., priority 2011, dated 2017):

Target: B-Raf V600E (Homo sapiens (Human), UniProt P15056, V600E)
Test: B-Raf V600E kinase biochemical activity (AlphaScreen, biotin-MEK1 substrate)
Conditions: 100 μM ATP
Experimental: Assays for biochemical and cell based activity are known in the art, for example, as described in PCT publication WO 2007/002433, the disclosure of which is hereby incorporated by reference as it relates to such assays. For example, the biochemical activity IC50 values are determined with respect to inhibition of B-Raf V600E kinase activity or p-Erk kinase activity, where inhibition of phosphorylation of a peptide substrate is measured as a function of compound concentration. Compounds to be tested are diluted in dimethyl sulfoxide to a concentration of 0.1 mM. These are serially diluted 15 μL into 30 μL of dimethyl sulfoxide seven times in 96 well plates for a total of 8 dilution points, and for each dilution point 1 μL is added to a well of an assay plate. Plates are prepared such that each well in a 384 well plate contains 1 μL of compound in 10 μL volume with 0.1 ng Raf enzyme (i.e. any of B-Raf, c-Raf-1 or B-Raf V600E, Upstate Biotechnology or prepared by methods known to one of skill in the art), 50 mM HEPES, pH 7.0, 50 mM NaCl, 2 mM MgCl2, 1 mM MnCl2, 0.01% Tween-20, 1 mM DTT, and 100 nM biotin-MEK1 as substrate. The reaction is started with addition of 10 μL of 200 μM ATP (i.e. final 100 μM ATP). After incubation of the kinase reaction for 45 minutes at room temperature, 5 μL/well of Stop Solution is added (25 mM Hepes pH 7.5, 100 mM EDTA, 0.01% BSA with donor beads (Streptavidin coated beads, Perkin Elmer), acceptor beads (Protein A coated, Perkin Elmer), and anti phosphor MEK1/2 antibody (CellSignal), each at final concentration 10 μg/mL). The plates are incubated for 3 hours at room temperature and read on Envision reader (Perkin Elmer). Phosphorylation of Mek1 results in binding of the anti-phosphor-MEK1/2antibody and association of the donor and acceptor beads such that signal correlates with kinase activity. The signal vs. compound concentration is used to determine the IC50.

B-Raf V600E, sequence (P15056 whole entry V600E): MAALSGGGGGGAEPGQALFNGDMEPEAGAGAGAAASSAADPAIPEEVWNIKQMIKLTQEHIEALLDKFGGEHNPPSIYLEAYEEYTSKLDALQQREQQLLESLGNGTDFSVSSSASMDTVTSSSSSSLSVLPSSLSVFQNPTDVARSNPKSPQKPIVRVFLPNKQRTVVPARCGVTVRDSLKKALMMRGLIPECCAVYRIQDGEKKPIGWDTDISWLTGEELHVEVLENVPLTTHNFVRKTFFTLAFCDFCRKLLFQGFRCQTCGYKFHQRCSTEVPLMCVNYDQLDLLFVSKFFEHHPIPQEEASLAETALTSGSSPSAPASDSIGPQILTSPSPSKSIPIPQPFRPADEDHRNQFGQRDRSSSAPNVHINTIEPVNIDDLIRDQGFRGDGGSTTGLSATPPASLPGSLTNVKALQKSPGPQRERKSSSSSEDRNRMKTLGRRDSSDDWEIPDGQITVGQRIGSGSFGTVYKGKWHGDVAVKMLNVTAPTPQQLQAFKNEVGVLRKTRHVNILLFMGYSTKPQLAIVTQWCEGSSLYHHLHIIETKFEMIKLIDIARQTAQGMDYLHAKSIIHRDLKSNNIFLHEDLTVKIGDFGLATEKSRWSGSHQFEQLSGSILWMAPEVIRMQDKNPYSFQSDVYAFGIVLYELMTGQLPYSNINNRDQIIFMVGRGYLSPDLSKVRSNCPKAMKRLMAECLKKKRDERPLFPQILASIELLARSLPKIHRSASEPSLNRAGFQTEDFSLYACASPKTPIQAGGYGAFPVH

## CCN(C)S(=O)(=O)Nc1ccc(F)c(C(=O)c2c[nH]c3ncc(-c4ccc(C5(C#N)CC5)cc4)cc23)c1F [Compound P-0239, 5-[4-(1-cyanocyclopropyl)phenyl]-3-[3-[[ethyl(methyl)sulfamoyl]amino]-2,6-difluoro-benzoyl]-1H-pyrrolo[2,3-b]pyridine]
  IC50: < 0.1 µM

## CN(C)S(=O)(=O)Nc1ccc(F)c(C(=O)c2c[nH]c3ncc(-c4ccc(C5(C#N)CC5)cc4)cc23)c1F [Compound P-0237, 5-[4-(1-cyanocyclopropyl)phenyl]-3-[3-(dimethylsulfamoylamino)-2,6-difluoro-benzoyl]-1H-pyrrolo[2,3-b]pyridine]
  IC50: < 0.1 µM

## Cn1cc(-c2cnc3[nH]cc(C(=O)c4cccc(NS(=O)(=O)CC5CC5)c4F)c3c2)cn1 [Compound P-0042, 1-cyclopropyl-N-[2-fluoro-3-[5-(1-methylpyrazol-4-yl)-1H-pyrrolo[2,3-b]pyridine-3-carbonyl]phenyl]methanesulfonamide]
  IC50: < 0.1 µM

## N#CC1(c2ccc(-c3cnc4[nH]cc(C(=O)c5c(F)ccc(NS(=O)(=O)N6CCCC6)c5F)c4c3)cc2)CC1 [Compound P-0248, N-[3-[5-[4-(1-cyanocyclopropyl)phenyl]-1H-pyrrolo[2,3-b]pyridine-3-carbonyl]-2,4-difluoro-phenyl]pyrrolidine-1-sulfonamide]
  IC50: < 0.1 µM
